Laboratory results taken from PMC10343887, “Structural Optimization of BIPPO Analogs as Potent Antimalarials” (Molecules, 2023).

Key:
[1] = tested on: P. falciparum; assay: Antimalarial screening against asexual blood stage P. falciparum; type: cell-based, Plasmodium falciparum; conditions: for IC50: Plasmodium falciparum, potency against asexual blood stage of P. falciparum, average values n ≥ 2, s.d. < 0.3, read-out: P. fal pIC50 (converted); for fold decreased antimalarial potency compared to 3 / fold potency decrease compared with 30: P. falciparum; for fold decreased antimalarial potency compared to 3: relative to 3; for fold potency decrease compared with 30: relative to 30
Protocol: Previously, Howard et al. reported (sub)micromolar activity against P. falciparum for a series of BIPPO analogs with benzyl substituents. To further understand the structure–activity relationship (SAR) of this interesting scaffold, close analogs of 3 with substituents at R^1–R^4 positions were tested against P. falciparum and human MRC-5 cells as the control for non-specific toxicity (Table 1).
The assay for antimalarial activity was carried out as described in detail in Pereira et al..

[2] = Non-specific toxicity control on human MRC-5 cells; type: cell-based; conditions: human MRC-5 cells; average values n ≥ 2, s.d. < 0.3; read-out: MRC-5 pIC50 (converted)

**Q.** What does the source list for `CC(C)c1n[nH]c2c(=O)[nH]c(C(C)c3ccccc3)nc12` (racemic) [compound 13, (racemic)-3-Isopropyl-5-(1-phenylethyl)-1,6-dihydro-7H-pyrazolo[4,3-d]pyrimidin-7-one]?
**A.** IC50 [1]: 1.26 µM; IC50 [2]: > 63.1 µM

**Q.** For `COC(c1ccccc1)c1nc2c(C(C)C)n[nH]c2c(=O)[nH]1` (racemic) [compound 15, (racemic)-3-Isopropyl-5-(methoxy(phenyl)methyl)-1,6-dihydro-7H-pyrazolo[4,3-d]pyrimidin-7-one], which “fold decreased antimalarial potency compared to 3” value [1] is on record?
**A.** Its value is 5- to 25 fold.

**Q.** What about the IC50 [1] of the same molecule?
**A.** Its IC50 is 7.94 µM.

**Q.** What about the IC50 [2] of the same molecule?
**A.** The IC50 was > 63.1 µM.

**Q.** Which IC50 [1] does the source give for `CC(C)c1nn(C)c2c(=O)[nH]c(Cc3ccccc3)nc12` [37a, 5-Benzyl-3-isopropyl-1-methyl-1,6-dihydro-7H-pyrazolo[4,3-d]pyrimidin-7-one] here?
**A.** The IC50 was 10 µM.

**Q.** And the IC50 [2]?
**A.** Its IC50 is > 63.1 µM.

**Q.** For `CC(C)c1c2nc(Cc3ccccc3)[nH]c(=O)c2nn1C` [37b, 5-Benzyl-3-isopropyl-2-methyl-2,6-dihydro-7H-pyrazolo[4,3-d]pyrimidin-7-one], which IC50 [1] is on record?
**A.** Its IC50 is 5.01 µM.

**Q.** What about the IC50 [2] of the same molecule?
**A.** Its IC50 is > 63.1 µM.

**Q.** With `CC(C)c1nn(C)c2c(=O)[nH]c(C34CC5CC(CC(C5)C3)C4)nc12` [38a, 5-(Adamantan-1-yl)-3-isopropyl-1-methyl-1,6-dihydro-7H-pyrazolo[4,3-d]pyrimidin-7-one] as the molecule, how does the “fold potency decrease compared with 30” value [1] read?
**A.** The value was “more than 400 fold”.

**Q.** What about the IC50 [1] of the same molecule?
**A.** Its IC50 is > 63.1 µM.

**Q.** What about the IC50 [2] of the same molecule?
**A.** Its IC50 is > 63.1 µM.

**Q.** With `CC(C)c1c2nc(C34CC5CC(CC(C5)C3)C4)[nH]c(=O)c2nn1C` [38b, 5-(Adamantan-1-yl)-3-isopropyl-2-methyl-2,6-dihydro-7H-pyrazolo[4,3-d]pyrimidin-7-one] as the molecule, how does the “fold potency decrease compared with 30” value [1] read?
**A.** The value was “more than 15 fold”.

**Q.** What about the IC50 [1] of the same molecule?
**A.** The IC50 was 2.51 µM.

**Q.** And the IC50 [2]?
**A.** The IC50 was > 63.1 µM.

**Q.** Which results are given for `CC(C)(C)c1n[nH]c2c(=O)[nH]c(Cc3ccccc3)nc12` [46a, 5-Benzyl-3-(tert-butyl)-1,6-dihydro-7H-pyrazolo[4,3-d]pyrimidin-7-one]?
**A.** IC50 [1]: 1.58 µM; IC50 [2]: 39.8 µM

**Q.** Which IC50 [1] does the source give for `O=c1[nH]c(Cc2ccccc2)nc2c(C3CCCC3)n[nH]c12` [46b, 5-Benzyl-3-cyclopentyl-1,6-dihydro-7H-pyrazolo[4,3-d]pyrimidin-7-one] here?
**A.** The IC50 was 1.58 µM.

**Q.** What about the IC50 [2] of the same molecule?
**A.** The IC50 was > 63.1 µM.

**Q.** With `CC(C)c1n[nH]c2c(=O)[nH]c(Cc3ccccc3)nc12` [compound 3, 5-Benzyl-3-isopropyl-1,6-dihydro-7H-pyrazolo[4,3-d]pyrimidin-7-one] as the molecule, how does the IC50 [1] read?
**A.** Its IC50 is 1.26 µM.

**Q.** What about the IC50 [2] of the same molecule?
**A.** Its IC50 is > 63.1 µM.

**Q.** What does the source list for `CC(C)c1n[nH]c2c(=O)[nH]c(Cc3ccncc3)nc12` [compound 4, 3-Isopropyl-5-(pyridin-4-ylmethyl)-1,6-dihydro-7H-pyrazolo[4,3-d]pyrimidin-7-one]?
**A.** fold decreased antimalarial potency compared to 3 [1]: six; IC50 [1]: 7.94 µM; IC50 [2]: > 63.1 µM

**Q.** With `CC(C)c1n[nH]c2c(=O)[nH]c(-c3ccccc3)nc12` [compound 6, 3-Isopropyl-5-phenyl-1,6-dihydro-7H-pyrazolo[4,3-d]pyrimidin-7-one] as the molecule, how does the “fold decreased antimalarial potency compared to 3” value [1] read?
**A.** The value was 5- to 25 fold.

**Q.** What about the IC50 [1] of the same molecule?
**A.** Its IC50 is 31.6 µM.

**Q.** And the IC50 [2]?
**A.** Its IC50 is > 63.1 µM.

**Q.** Which results are given for `CC(C)c1n[nH]c2c(=O)[nH]c(-c3ccc(N4CCN(C)CC4)cc3)nc12` [compound 7, 3-Isopropyl-5-(4-(4-methylpiperazin-1-yl)phenyl)-1,6-dihydro-7H-pyrazolo[4,3-d]pyrimidin-7-one]?
**A.** IC50 [1]: 7.94 µM; IC50 [2]: > 39.8 µM

**Q.** For `CC(C)c1n[nH]c2c(=O)[nH]c(-c3ccc(N4CCCCC4)cc3)nc12` [compound 8, 3-Isopropyl-5-(4-(piperidin-1-yl)phenyl)-1,6-dihydro-7H-pyrazolo[4,3-d]pyrimidin-7-one], which IC50 [1] is on record?
**A.** The IC50 was > 50.1 µM.

**Q.** And the IC50 [2]?
**A.** The IC50 was > 63.1 µM.

**Q.** Which results are given for `CC(C)c1n[nH]c2c(=O)[nH]c(-c3cscn3)nc12` [compound 9, 3-Isopropyl-5-(thiazol-4-yl)-1,6-dihydro-7H-pyrazolo[4,3-d]pyrimidin-7-one]?
**A.** IC50 [1]: > 63.1 µM; IC50 [2]: > 63.1 µM

**Q.** For `CC(C)c1n[nH]c2c(=O)[nH]c(-c3ccc(=O)n(C)c3)nc12` [compound 10, 3-Isopropyl-5-(1-methyl-6-oxo-1,6-dihydropyridin-3-yl)-1,6-dihydro-7H-pyrazolo[4,3-d]pyrimidin-7-one], which IC50 [1] is on record?
**A.** Its IC50 is > 63.1 µM.

**Q.** What about the IC50 [2] of the same molecule?
**A.** The IC50 was > 63.1 µM.

**Q.** Which results are given for `CC(C)c1n[nH]c2c(=O)[nH]c(-c3ccn(C)c(=O)c3)nc12` [compound 11, 3-Isopropyl-5-(1-methyl-2-oxo-1,2-dihydropyridin-4-yl)-1,6-dihydro-7H-pyrazolo[4,3-d]pyrimidin-7-one]?
**A.** IC50 [1]: > 63.1 µM; IC50 [2]: > 63.1 µM

**Q.** For `CC(C)c1n[nH]c2c(=O)[nH]c(CCc3ccccc3)nc12` [compound 12, 3-Isopropyl-5-phenethyl-1,6-dihydro-7H-pyrazolo[4,3-d]pyrimidin-7-one], which “fold decreased antimalarial potency compared to 3” value [1] is on record?
**A.** Its value is 5- to 25 fold.

**Q.** And the IC50 [1]?
**A.** Its IC50 is 6.31 µM.

**Q.** What about the IC50 [2] of the same molecule?
**A.** Its IC50 is > 63.1 µM.

**Q.** Which IC50 [1] does the source give for `CC(C)c1n[nH]c2c(=O)[nH]c(C(C)(C)c3ccccc3)nc12` [compound 14, 3-Isopropyl-5-(2-phenylpropan-2-yl)-1,6-dihydro-7H-pyrazolo[4,3-d]pyrimidin-7-one] here?
**A.** Its IC50 is 1 µM.

**Q.** And the IC50 [2]?
**A.** Its IC50 is > 63.1 µM.

**Q.** With `CC(C)c1n[nH]c2c(=O)[nH]c(C3(c4ccccc4)CC3)nc12` [compound 16, 3-Isopropyl-5-(1-phenylcyclopropyl)-1,6-dihydro-7H-pyrazolo[4,3-d]pyrimidin-7-one] as the molecule, how does the “fold decreased antimalarial potency compared to 3” value [1] read?
**A.** The value was 5- to 25 fold.

**Q.** What about the IC50 [1] of the same molecule?
**A.** The IC50 was 3.16 µM.

**Q.** And the IC50 [2]?
**A.** The IC50 was > 63.1 µM.

**Q.** Which IC50 [1] does the source give for `CC(C)c1n[nH]c2c(=O)[nH]c(C3(c4ccccc4)CCC3)nc12` [compound 17, 3-Isopropyl-5-(1-phenylcyclobutyl)-1,6-dihydro-7H-pyrazolo[4,3-d]pyrimidin-7-one] here?
**A.** Its IC50 is 1.58 µM.

**Q.** What about the IC50 [2] of the same molecule?
**A.** The IC50 was 25.1 µM.

**Q.** For `CC(C)c1n[nH]c2c(=O)[nH]cnc12` [compound 18, 3-Isopropyl-1,6-dihydro-7H-pyrazolo[4,3-d]pyrimidin-7-one], which IC50 [1] is on record?
**A.** Its IC50 is > 63.1 µM.

**Q.** What about the IC50 [2] of the same molecule?
**A.** The IC50 was > 63.1 µM.

**Q.** With `Cc1nc2c(C(C)C)n[nH]c2c(=O)[nH]1` [compound 19, 3-Isopropyl-5-methyl-1,6-dihydro-7H-pyrazolo[4,3-d]pyrimidin-7-one] as the molecule, how does the IC50 [1] read?
**A.** The IC50 was 39.8 µM.

**Q.** And the IC50 [2]?
**A.** Its IC50 is > 63.1 µM.

**Q.** Which results are given for `CC(C)c1nc2c(C(C)C)n[nH]c2c(=O)[nH]1` [compound 20, 3,5-Diisopropyl-1,6-dihydro-7H-pyrazolo[4,3-d]pyrimidin-7-one]?
**A.** IC50 [1]: 3.98 µM; IC50 [2]: > 63.1 µM

**Q.** What does the source list for `CCCCc1nc2c(C(C)C)n[nH]c2c(=O)[nH]1` [compound 21, 5-Butyl-3-isopropyl-1,6-dihydro-7H-pyrazolo[4,3-d]pyrimidin-7-one]?
**A.** IC50 [1]: 1.26 µM; IC50 [2]: > 63.1 µM

**Q.** Which IC50 [1] does the source give for `CC(C)c1n[nH]c2c(=O)[nH]c(C3CCCC3)nc12` [compound 22, 5-Cyclopentyl-3-isopropyl-1,6-dihydro-7H-pyrazolo[4,3-d]pyrimidin-7-one] here?
**A.** Its IC50 is 0.794 µM.

**Q.** And the IC50 [2]?
**A.** Its IC50 is > 63.1 µM.

**Q.** Which results are given for `CC(C)c1n[nH]c2c(=O)[nH]c(C3CCOCC3)nc12` [compound 24, 3-Isopropyl-5-(tetrahydro-2H-pyran-4-yl)-1,6-dihydro-7H-pyrazolo[4,3-d]pyrimidin-7-one]?
**A.** IC50 [1]: 5.01 µM; IC50 [2]: > 63.1 µM

**Q.** With `CC(C)c1n[nH]c2c(=O)[nH]c(C3CCN(C)CC3)nc12` [compound 25, 3-Isopropyl-5-(1-methylpiperidin-4-yl)-1,6-dihydro-7H-pyrazolo[4,3-d]pyrimidin-7-one diformate] as the molecule, how does the IC50 [1] read?
**A.** Its IC50 is > 63.1 µM.

**Q.** What about the IC50 [2] of the same molecule?
**A.** Its IC50 is > 63.1 µM.

**Q.** Which IC50 [2] does the source give for `CC(C)c1n[nH]c2c(=O)[nH]c([C@H]3CC[C@@H](O)CC3)nc12` [compound 26, cis-5-(4-Hydroxycyclohexyl)-3-isopropyl-1,6-dihydro-7H-pyrazolo[4,3-d]pyrimidin-7-one] here?
**A.** The IC50 was > 63.1 µM.
